Assay results: patent EP0227100A2, “N-Vinylimidazoles and -triazoles and pharmaceutical compositions containing them” (SHIONOGI SEIYAKU KABUSHIKI KAISHA, priority 1985, dated 1987)
Values after ≈ are worked out from the molar mass of the structure shown.

Columns and labels:
Type in all cases: cell-based
Trichophyton asteroides = assay: Minimum inhibitory concentration against Trichophyton asteroides, test tube experiment in Sabouraud's dextrose broth
Description: In the test, Sabouraud's dextrose broth* was used.

C. albicans KE-2 = assay: Inhibition test against pseudomycelium formation of Candida albicans; settings: minimum effective concentration preventing typical pseudomycelium formation; EMEM with 20 % calf serum, 1 x 10⁶ yeast cells per milliliter, 18 hr. at 37 °C; read-out: Inhibitory Concentration of Pseudomyselium Formation
Procedure: Inhibition test against pseudomycelium formation of Candida albicans.
C. albicans KE-2 was inoculated to EMEM (Nissan 2 made by Nissui Seiyaku, Ltd.) supplemented with 20 % calf serum so that its final inoculum might be 1 x 10⁶ yeast cells per milliliter. The test compounds were added thereon in two fold dilution series. After inocubation for 18 hr. at 37 °C, the fungal growth in each drug concentration was smeared and fixed on a slide glass, and its morphological feature on the presence or absence of the pseudomycelium formation was examined by a microscope following Giemsa staining. Minimum effective concentration was defined as the lowest concentration of the compound which prevented typical pseudomycelium formation.

[1] = tested on: influenza virus Ao/WSN (H₁N₁); assay: Antiviral activity: Plaque Reduction Test in MDCK cells; settings: unidentified influenza virus, read-out: ED 50 (1) Plaque Reduction Test
[2] = tested on: influenza virus Ao/WSN (H₁N₁); assay: microbe, parasite or virus in culture; settings: unidentified influenza virus, MDCK, 24 h, read-out: ED 50 (2) Virus Yield Test
in vitro = settings: dog, mdck
Procedure: (3) Colony Formation Test The action to the host cell was examined by the following method: MDCK cells (coming from dog's kidney) were adjusted to a concentration of 200 cells/ml with a growth medium and poured into each pore of Lindbrow's 12 pores microplate 1 ml by 1 ml. The test compound diluted with a growth medium was added to the pores 1 ml by 1 ml, and the whole was cultivated in a cultivating apparatus filled with 5% carbon dioxide gas at 37°C for 7 days. After dyeing with 1% crystal violet dyeing solution for 15 min, the number of cell colonies was counted. The concentration of the test compound which inhibited 50% the growth of cell colonies in comparison with obtained without using the test compound was evaluated as TD₅₀ value for judging the toxicity against cell.

COc1ccc(Cl)cc1C(=C1CCCCC1)n1ccnc1 [Compound I-56]
MIC (Trichophyton asteroides): 0.1 µg/mL (≈ 0.33 µM)

CCC(CC)=C(c1cc(Cl)ccc1OC(C)C)n1ccnc1 [Compound I-52]
minimal effective concentration (C. albicans KE-2): 0.08 µg/mL
MIC (Trichophyton asteroides): 0.1 µg/mL (≈ 0.314 µM)

CCC(CC)=C(c1cc(Cl)ccc1O)n1cncn1 [Compound I-6]
MIC (Trichophyton asteroides): 0.1 µg/mL (≈ 0.36 µM)

Oc1ccc(Cl)cc1/C(=C/c1ccc(Cl)cc1Cl)n1ccnc1 [Compound I-9]
MIC (Trichophyton asteroides): 0.1 µg/mL (≈ 0.273 µM)

CC(C)Oc1ccc(Cl)cc1C(=C1CCCCC1)n1ccnc1 [Compound I-66]
minimal effective concentration (C. albicans KE-2): 0.08 µg/mL
MIC (Trichophyton asteroides): 0.1 µg/mL (≈ 0.302 µM)

C=C(c1cc(Cl)ccc1OCC(=O)c1ccc(Cl)cc1)n1ccnc1 [Compound I-107]
MIC (Trichophyton asteroides): 0.1 µg/mL (≈ 0.268 µM)

CCC(CC)=C(c1cc(Cl)ccc1O)n1ccnc1 [Compound I-5]
minimal effective concentration (C. albicans KE-2): 0.63 µg/mL
MIC (Trichophyton asteroides): 0.1 µg/mL (≈ 0.361 µM)

COc1ccc(Cl)cc1C(=C1CCCCC1)n1cncn1 [Compound I-57]
EC50 [1]: 48 µg/mL (≈ 158 µM)
EC50 [2]: 30 µg/mL (≈ 98.8 µM)
CC50 at 168 h (in vitro): 70 µg/mL (≈ 230 µM)

Oc1ccc(Cl)cc1C(=C1CCCCC1)n1ccnc1 [Compound I-22]
MIC (Trichophyton asteroides): 0.1 µg/mL (≈ 0.346 µM)

C=C(c1c(O)cccc1OCCCC)n1ccnc1 [Compound I-4]
MIC (Trichophyton asteroides): 0.1 µg/mL (≈ 0.387 µM)

CCC(CC)=C(c1cc(Cl)ccc1OC)n1ccnc1 [Compound I-50]
minimal effective concentration (C. albicans KE-2): 0.31 µg/mL
MIC (Trichophyton asteroides): 0.1 µg/mL (≈ 0.344 µM)

CC(C)Oc1ccc(Cl)cc1C(=C1CCCCC1)n1cncn1 [Compound I-58]
minimal effective concentration (C. albicans KE-2): 0.16 µg/mL

C=C(c1cc(-c2ccccc2)ccc1OC)n1ccnc1 [Compound I-49]
MIC (Trichophyton asteroides): 0.1 µg/mL (≈ 0.362 µM)

CCCCOc1ccc(Cl)cc1C(=C(CC)CC)n1ccnc1 [Compound I-51]
minimal effective concentration (C. albicans KE-2): 0.31 µg/mL
